For one data set, the system named is mice. The note with it: mouse, in vivo, 1440 min. Here is the method: 2. Determination of Minimum Toxic Dose
Maximum doses of 300 mg/kg of the test substance were administered orally to male mice weighing 20-25 g. The animals were observed carefully for 3 hours for toxicity symptoms. In addition, all symptoms and deaths were recorded over a period of 24 hours after administration. Associated symptoms were also observed and recorded. If death or severe toxic symptoms were observed, additional mice were administered increasingly lower doses. The lowest dose which produced death or severe toxic symptoms is given in the following Table B as the minimum toxic dose.

Another data set addresses T1, 5-lipoxygenase (Mus musculus, UniProt P48999).
T1 construct: A cell suspension containing peritoneal cells from male mice 8-10 weeks old was obtained in a known manner; endogenous in cells; host or cells: mouse peritoneal macrophages (primary, adherent)
T1 sequence (P48999 1-674): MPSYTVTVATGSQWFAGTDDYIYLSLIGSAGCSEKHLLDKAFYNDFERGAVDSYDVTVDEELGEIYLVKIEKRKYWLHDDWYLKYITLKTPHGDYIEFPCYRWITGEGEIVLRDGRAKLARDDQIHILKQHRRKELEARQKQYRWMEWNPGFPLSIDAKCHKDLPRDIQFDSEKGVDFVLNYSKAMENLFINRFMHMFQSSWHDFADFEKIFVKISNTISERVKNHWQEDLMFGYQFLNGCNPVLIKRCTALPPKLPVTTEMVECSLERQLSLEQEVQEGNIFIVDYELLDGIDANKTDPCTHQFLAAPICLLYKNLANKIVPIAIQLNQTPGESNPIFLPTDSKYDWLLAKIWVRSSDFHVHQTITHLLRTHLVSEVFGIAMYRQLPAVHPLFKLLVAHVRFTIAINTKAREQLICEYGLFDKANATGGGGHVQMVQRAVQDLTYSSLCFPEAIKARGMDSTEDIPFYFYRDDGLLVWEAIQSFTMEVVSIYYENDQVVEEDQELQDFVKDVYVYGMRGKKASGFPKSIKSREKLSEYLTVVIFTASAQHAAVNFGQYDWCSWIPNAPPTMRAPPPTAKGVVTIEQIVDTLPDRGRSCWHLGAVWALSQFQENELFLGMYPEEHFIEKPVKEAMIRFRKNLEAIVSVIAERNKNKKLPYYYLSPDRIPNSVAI
Nature of the data set: In vitro 5-lipoxygenase inhibition, release of LTC4 from zymosan-stimulated peritoneal macrophages. The conditions noted are these: zymosan-stimulated mouse peritoneal macrophage cells, 10^-5 mole/l. In kind it is cell-based. The source says:
5. In Vitro Determination of Cyclooxygenase Inhibition And 5-lipoxygenase Inhibition.
After a cell is activated, arachidonic acid contained in cell membranes is metabolized in two ways. Leucotrienes, inter alia leucotriene C4, are formed due to the action of the enzyme 5-lipoxygenase (=5-LO), and prostanoids are formed due to the action of the enzyme cyclooxygenase (=CO). In in vitro systems these metabolites are secreted from the cell.
To evaluate the cyclooxygenase-inhibiting and 5-lipoxygenase-inhibiting properties of the test substances, their inhibitory activity on the biosynthesis of the arachidonic acid derivatives leucotriene C4 (=LTC4) and 6-keto-prostaglandin F1α (=6-keto-PGF1α) was determined in vitro on mouse peritoneal macrophage cells. For this purpose the LTC4 and 6-keto-PGF1α contents of a mouse peritoneal macrophage cell culture medium were determined by zymosan stimulation as described by Scott et al. (J. Exp. Med. 152 (1980), 324-335) and by Fradin et al., (Prostaglandins, 33 (1987), 579-589).
A cell suspension containing peritoneal cells from male mice 8-10 weeks old was obtained in a known manner. A solution marketed under the designation RPMI 1640 (Manufactured by Gibco) was used as the cell culture medium, to which heparin (10 international units/ml) and antibiotics were added according to the procedure of Bonney et al. (Biochem. J. 176 (1978) 422-433). The cell suspension was adjusted to a cell concentration of 10^6 cells per ml and distributed uniformly on titer dishes containing 24 1-ml titer cells (wells). These were kept for two hours in a humidified incubator filled with air enriched with 7% CO2. Cells not adhering to the titer well walls were then removed by washing. The remaining macrophage cells adhering to the walls were incubated for about 12 hours in a suspension medium to which 0.1% of bovine serum albumin (BSA=Bovine Serum Albumin) was added. The suspension medium was then replaced by a Hanks salt solution (=Hanks Balanced Salt Solution=HBSS) with 10 mmoles of HEPES (=hydroxyethylpiperazinoethanesulfonic acid) to which a 0.1% strength solution of the test substances in aqueous, 1% strength dimethylformamide or only the solvent had been added. After 15 minutes the arachidonic acid metabolism was stimulated by adding […] of zymosan (=glycoprotein mixture isolated from cell walls of beer yeast, Saccharomyces cerevisiae, Manufactured by Sigma Chemical Co., Munich) per titre cell. After 2 hours samples of the respective supernatant liquid in each cell were examined for their 6-keto-PGF1α and LTC4 contents by an enzyme immunoassay (=EIA). This EIA is carried out following the method of Pradelles et al. (Analytical Chem. 57 (1985), 1170-1173). The determination of LTC4 and the determination of 6-keto-PGF1α were each carried out on suitable dilutions of the samples (1:50 to 1:250 for the LTC4 determination and 1:250 to 1:1,250 for the 6-keto-PGF1α determination) in comparison with a comparative scale. To determine the inhibiting effect of a 10^-5 molar concentration of the compounds, the amounts of reference eicosanoid were determined, and the inhibiting effect was calculated therefrom in % inhibition compared to the measurements of the zymosan controls.

Structures are written as SMILES.

`Cc1ccnc(N2CCN(CCCCC3Sc4ccccc4NC3=O)CC2)c1` (stereo not drawn) [Example 1, 2-{4-[4-(4-methylpyridin-2-yl)-piperazin-1-yl]butyl}-2H-1,4-benzothiazine-3(4H)-one] yielded a Minimum toxic dose in the data set with mice of 300 mg/kg. The “% inhibition upon release of LTC4” value at 5-lipoxygenase came to 48%.

Consider `Cc1ccnc(N2CCN(CCCCC3Oc4ccccc4NC3=O)CC2)c1` (stereo not drawn) [Example 7], for which the “% inhibition upon release of LTC4” value at 5-lipoxygenase came to 46%. Compound `Cc1ccnc(N2CCN(CCCC3Sc4ccccc4NC3=O)CC2)c1` (stereo not drawn) [Example 8] came in with a Minimum toxic dose in the data set on mice of 100 mg/kg. In the data set with mice, `Cc1ccnc(N2CCN(CCCC3Oc4ccccc4NC3=O)CC2)c1` (stereo not drawn) [Example 9] had a Minimum toxic dose of 300 mg/kg. Further, the “% inhibition upon release of LTC4” value at 5-lipoxygenase worked out at 65%.

With `Cc1ccnc(N2CCN(CCCC3Sc4ccccc4NC3=S)CC2)c1` (stereo not drawn) [Example 11], the Minimum toxic dose in the data set with mice is greater than 300 mg/kg. The “% inhibition upon release of LTC4” value on 5-lipoxygenase came to 42%. As to `O=C1Nc2ccccc2SC1CCCN1CCN(c2ccc(Cl)cn2)CC1` (stereo not drawn) [Example 15], the “% inhibition upon release of LTC4” value on 5-lipoxygenase is on record as 9%.
